What follows are compounds tested against α-melanocyte-stimulating hormone receptor (hMC4R) (Homo sapiens (Human), UniProt P32245) (assay: In vitro binding affinity assay using hMC4R (radioligand competition binding, [125I]-(Nle4, D-Phe7)-α-MSH)). Conditions: geometric mean, read-out: Ki (nM) geometric.
Method: The binding affinity of test compounds at the α-melanocyte-stimulating hormone receptor (hMC4R) was assessed using a radioligand competition binding assay. Recombinant Chinese hamster ovaries (CHO) cells stably expressing hMC4R (PerkinElmer #ES-191-C) were used for competitive binding. hMC4R membranes were grown in Dulbecco's Modified Essential Medium and Ham's F-12 Medium (DMEM/F12), 10% heat inactivated fetal bovine serum (FBS), 0.4 mg/mL Geneticin and 2 mM L-glutamine. Cell membranes were bulked and frozen until the assay was performed.
Compounds were solubilized in 100% dimethyl sulfoxide (DMSO) to a concentration of 30 mM. A 10-point intermediate dilution series using half log dilutions was created in 100% DMSO with a top concentration of 0.03 mM. The serially diluted compounds were spotted as 1 μL/well, in 96-well Costar 3363 plates. The final compound range in the assay was 300 nM to 0.01 nM with a final DMSO concentration of 1%. Control wells, containing 1 μL of 2 mM ([…]) alpha-melanocyte stimulating hormone (α-MSH-Tocris #2584) was added to the non-specific binding wells and 1 μL 100% DMSO for the total binding control wells. […] The exact concentration of radioligand used for each experiment was determined by liquid scintillation counting and adjusted if necessary.
Frozen hMC4R cell membranes were thawed and Dounce homogenized. Homogenates were resuspended in assay buffer to a concentration of 2 μg per well. […] The plates were incubated for 2 hours at room temperature. Assay samples were then rapidly filtered through Unifilter-96 GF/B PEI coated filter plates using a filter plate harvester (PerkinElmer) and rinsed with ice-cold wash buffer [25 mM (4-(2-hydroxyethyl)-1-piperazineethanesulfonic acid (HEPES), 1 mM MgCl2, 2.5 mM CaCl2, and 500 mM NaCl]. Filter plates were dried overnight at room temperature. Plates were then bottom-sealed prior to the addition of 50 μL/well Ultima Gold XR scintillation fluid (PerkinElmer 6013111). Plates were then top-sealed, incubated for 60 minutes at room temperature and then the amount of radioactivity present was determined by liquid scintillation counting on a Microbeta Trilux (PerkinElmer #2450-0060).
The raw data (expressed as counts per minute) were analyzed using ActivityBase (IDBS Data Management Software). […] Equilibrium dissociation constant for inhibitor of ligand and receptor interaction (Ki) values were then calculated from the IC50 values using the Cheng-Prusoff equation: Ki=IC50/(1+([L]/Kd)), where [L] is the concentration of the radioligand used in the experiment and Kd is the affinity of the radioligand (determined in separate saturation experiments).

Sequence of α-melanocyte-stimulating hormone receptor (hMC4R) (P32245 whole entry): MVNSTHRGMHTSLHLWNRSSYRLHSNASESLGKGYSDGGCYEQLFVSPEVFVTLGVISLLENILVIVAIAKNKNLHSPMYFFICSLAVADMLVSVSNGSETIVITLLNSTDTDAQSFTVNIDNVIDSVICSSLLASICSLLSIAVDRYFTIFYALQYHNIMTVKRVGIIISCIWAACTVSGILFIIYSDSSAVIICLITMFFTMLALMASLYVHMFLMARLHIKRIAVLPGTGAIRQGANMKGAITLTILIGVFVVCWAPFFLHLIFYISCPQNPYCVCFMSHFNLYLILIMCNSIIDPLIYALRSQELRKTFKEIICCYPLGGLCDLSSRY

SMILES	Ki [nM]
COc1cc([C@@H](C)C(=O)N2CC[C@@]3(CCc4cc(-c5cccc(-c6cnco6)c5)c(C)nc4N3)C2)c(F)cn1 [Example 173, (2R)-2-(5-fluoro-2-methoxypyridin-4-yl)-1-{(2S)-7-methyl-6-[3-(1,3-oxazol-5-yl)phenyl]-3,4-dihydro-1H-spiro[1,8-naphthyridine-2,3′-pyrrolidin]-1′-yl}propan-1-one]	85
COc1cc([C@@H](C)C(=O)N2CC[C@@]3(CCc4cc(-c5nc(C(F)F)n(C)n5)c(C)nc4N3)C2)nc(C)n1 (single isomer, unassigned) [Example 123]	0.22
COc1cc([C@@H](C)C(=O)N2CC[C@@]3(CCc4cc(-c5nc(C(F)F)n(C6CC6)n5)c(C)nc4N3)C2)c(F)cn1 [Example 189, (2R)-1-{(2S)-6-[1-cyclopropyl-5-(difluoromethyl)-1H-1,2,4-triazol-3-yl]-7-methyl-3,4-dihydro-1H-spiro[1,8-naphthyridine-2,3′-pyrrolidin]-1′-yl}-2-(5-fluoro-2-methoxypyridin-4-yl)propan-1-one]	1.3
COc1cc([C@@H](C)C(=O)N2CC[C@@]3(CCc4cc(-c5ccc(C(F)F)cn5)c(C)nc4N3)C2)c(F)cn1 [Example 179, (2R)-1-{(2S)-6-[5-(difluoromethyl)pyridin-2-yl]-7-methyl-3,4-dihydro-1H-spiro[1,8-naphthyridine-2,3′-pyrrolidin]-1′-yl}-2-(5-fluoro-2-methoxypyridin-4-yl)propan-1-one]	21
COc1cc([C@@H](C)C(=O)N2CC[C@@]3(CCc4cc(-c5ccnnc5)c(C)nc4N3)C2)c(F)cn1 [Example 141, (2R)-2-(5-fluoro-2-methoxypyridin-4-yl)-1-[(2S)-7-methyl-6-(pyridazin-4-yl)-3,4-dihydro-1H-spiro[1,8-naphthyridine-2,3′-pyrrolidin]-1′-yl]propan-1-one]	14
COc1cc([C@@H](C)C(=O)N2CC[C@@]3(CCc4cc(-c5cncc(C6CC6)n5)c(C)nc4N3)C2)c(F)cn1 [Example 177, (2R)-1-[(2S)-6-(6-cyclopropylpyrazin-2-yl)-7-methyl-3,4-dihydro-1H-spiro[1,8-naphthyridine-2,3′-pyrrolidin]-1′-yl]-2-(5-fluoro-2-methoxypyridin-4-yl)propan-1-one]	59
COc1cc([C@@H](C)C(=O)N2CC[C@@]3(CCc4cc(-c5ncc(F)cn5)c(C)nc4N3)C2)c(F)cn1 [Example 146, (2R)-2-(5-fluoro-2-methoxypyridin-4-yl)-1-[(2S)-6-(5-fluoropyrimidin-2-yl)-7-methyl-3,4-dihydro-1H-spiro[1,8-naphthyridine-2,3′-pyrrolidin]-1′-yl]propan-1-one]	1.2

The next lines start with the values.

Ki [nM]	SMILES
15	COc1cc([C@@H](C)C(=O)N2CC[C@@]3(CCc4cc(-c5ccc(C6CC6)nn5)c(C)nc4N3)C2)c(F)cn1 [Example 199, (2R)-1-[(2S)-6-(6-cyclopropylpyridazin-3-yl)-7-methyl-3,4-dihydro-1H-spiro[1,8-naphthyridine-2,3′-pyrrolidin]-1′-yl]-2-(5-fluoro-2-methoxypyridin-4-yl)propan-1-one]
18	COc1cc([C@@H](C)C(=O)N2CC[C@@]3(CCc4cc(-c5ccc(OC(F)F)nc5)c(C)nc4N3)C2)c(F)cn1 [Example 159, (2R)-1-{(2S)-6-[6-(difluoromethoxy)pyridin-3-yl]-7-methyl-3,4-dihydro-1H-spiro[1,8-naphthyridine-2,3′-pyrrolidin]-1′-yl}-2-(5-fluoro-2-methoxypyridin-4-yl)propan-1-one]
5.4	COc1cc([C@@H](C)C(=O)N2CC[C@@]3(CCc4cc(-c5nccs5)c(C)nc4N3)C2)c(F)cn1 [Example 167, (2R)-2-(5-fluoro-2-methoxypyridin-4-yl)-1-[(2S)-7-methyl-6-(1,3-thiazol-2-yl)-3,4-dihydro-1H-spiro[1,8-naphthyridine-2,3′-pyrrolidin]-1′-yl]propan-1-one]
7.6	COc1cc([C@@H](C)C(=O)N2CC[C@@]3(CCc4cc(-c5ccncc5)c(C)nc4N3)C2)c(F)cn1 [Example 169, (2R)-2-(5-fluoro-2-methoxypyridin-4-yl)-1-[(2S)-7-methyl-6-(pyridin-4-yl)-3,4-dihydro-1H-spiro[1,8-naphthyridine-2,3′-pyrrolidin]-1′-yl]propan-1-one]
5.5	COc1cc([C@@H](C)C(=O)N2CC[C@@]3(CCc4cc(-c5nc(N6CCOCC6)n(C)n5)c(C)nc4N3)C2)c(F)cn1 [Example 187, (2R)-2-(5-fluoro-2-methoxypyridin-4-yl)-1-{(2S)-7-methyl-6-[1-methyl-5-(morpholin-4-yl)-1H-1,2,4-triazol-3-yl]-3,4-dihydro-1H-spiro[1,8-naphthyridine-2,3′-pyrrolidin]-1′-yl}propan-1-one]
27	COc1cc([C@@H](C)C(=O)N2CC[C@@]3(CCc4cc(-c5ccc(C(F)(F)F)cn5)c(C)nc4N3)C2)c(F)cn1 [Example 155, (2R)-2-(5-fluoro-2-methoxypyridin-4-yl)-1-{(2S)-7-methyl-6-[5-(trifluoromethyl)pyridin-2-yl]-3,4-dihydro-1H-spiro[1,8-naphthyridine-2,3′-pyrrolidin]-1′-yl}propan-1-one]
0.62	COc1cc([C@@H](C)C(=O)N2CC[C@@]3(CCc4cc(-c5nc6n(n5)CCC6(F)F)c(C)nc4N3)C2)c(F)cn1 [Example 147, (2R)-1-[(2S)-6-(7,7-difluoro-6,7-dihydro-5H-pyrrolo[12-b][1,2,4]triazol-2-yl)-7-methyl-3,4-dihydro-1H-spiro[1,8-naphthyridine-2,3′-pyrrolidin]-1′-yl]-2-(5-fluoro-2-methoxypyridin-4-yl)propan-1-one]
6.3	COc1cc([C@@H](C)C(=O)N2CC[C@@]3(CCc4cc(-c5ccccn5)c(C)nc4N3)C2)c(F)cn1 [Example 140, (2R)-2-(5-fluoro-2-methoxypyridin-4-yl)-1-[(2S)-7-methyl-6-(pyridin-2-yl)-3,4-dihydro-1H-spiro[1,8-naphthyridine-2,3′-pyrrolidin]-1′-yl]propan-1-one]

Same assay, conditions: geometric mean, read-out: Ki (nM) geometric mean

Ki [nM]	SMILES
48	Cc1ccc2c(n1)N[C@@]1(CC2)CCN(C(=O)Cc2ccc(F)cc2)C1 (single isomer, unassigned) [Example 87, 2-(4-fluorophenyl)-1-(7-methyl-3,4-dihydro-1H-spiro[1,8-naphthyridine-2,3′-pyrrolidin]-1′-yl)ethan-1-one]
3.3	COc1cc([C@@H](C)C(=O)N2CC[C@@]3(CCc4cc(-c5cc(C(F)(F)F)ncn5)c(C)nc4N3)C2)c(F)cn1 [Example 72, (2R)-2-(5-fluoro-2-methoxypyridin-4-yl)-1-{(2S)-7-methyl-6-[6-(trifluoromethyl)pyrimidin-4-yl]-3,4-dihydro-1H-spiro[1,8-naphthyridine-2,3′-pyrrolidin]-1′-yl}propan-1-one]

SMILES	Ki [nM]
COc1cc([C@H](C)C(=O)N2CC[C@]3(CCc4cc(-c5ncccn5)c(C)nc4N3)C2)c(F)cn1 [Example 30, (2S)-2-(5-fluoro-2-methoxypyridin-4-yl)-1-[(2R)-7-methyl-6-(pyrimidin-2-yl)-3,4-dihydro-1H-spiro[1,8-naphthyridine-2,3′-pyrrolidin]-1′-yl]propan-1-one]	> 250

— patent publication US20250084084A1, “Crystalline form of (2R)-2-(5-fluoro-2-methoxypyridin-4-yl)-1-[(2S)-7-methyl-6-(pyrimidin-2-yl)-3,4-dihydro-1H-spiro[1,8-naphthyridine-2,3-pyrrolidin]-1-yl]propan-1-one” (Pfizer Inc., priority 2020, published 2025)
